Source: patent publication US20060258598A1, “Alpha-keto carbonyl calpain inhibitors” (priority 2003, published 2006)

Legend:
human μ-calpain = target: T1, human μ-calpain (Homo sapiens, UniProt P07384); test: Enzymatic calpain inhibition assay; assay type: biochemical; conditions: substrate Suc-Leu-Tyr-AMC, read-out: Calp I IC50
T1 construct: purchased Calbiochem
T1 sequence (P07384 1-714): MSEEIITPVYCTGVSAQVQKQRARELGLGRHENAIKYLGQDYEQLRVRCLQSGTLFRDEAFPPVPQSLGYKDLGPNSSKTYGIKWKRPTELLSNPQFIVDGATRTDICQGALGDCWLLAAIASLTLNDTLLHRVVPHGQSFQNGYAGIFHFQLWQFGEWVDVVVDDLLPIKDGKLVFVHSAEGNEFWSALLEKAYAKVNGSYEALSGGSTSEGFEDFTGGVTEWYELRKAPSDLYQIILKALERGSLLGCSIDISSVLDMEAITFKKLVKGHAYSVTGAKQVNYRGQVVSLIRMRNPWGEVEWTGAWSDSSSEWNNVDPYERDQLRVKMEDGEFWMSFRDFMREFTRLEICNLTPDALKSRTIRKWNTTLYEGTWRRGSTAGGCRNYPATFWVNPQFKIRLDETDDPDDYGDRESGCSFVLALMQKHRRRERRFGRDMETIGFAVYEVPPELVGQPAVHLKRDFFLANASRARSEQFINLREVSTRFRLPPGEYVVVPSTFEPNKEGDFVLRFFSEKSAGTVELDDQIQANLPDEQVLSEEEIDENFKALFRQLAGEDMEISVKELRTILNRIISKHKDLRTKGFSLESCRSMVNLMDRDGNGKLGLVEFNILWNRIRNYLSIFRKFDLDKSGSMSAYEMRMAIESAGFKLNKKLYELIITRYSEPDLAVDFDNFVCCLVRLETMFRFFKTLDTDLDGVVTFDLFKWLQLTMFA
T1 sequence (P04632 1-268 partner): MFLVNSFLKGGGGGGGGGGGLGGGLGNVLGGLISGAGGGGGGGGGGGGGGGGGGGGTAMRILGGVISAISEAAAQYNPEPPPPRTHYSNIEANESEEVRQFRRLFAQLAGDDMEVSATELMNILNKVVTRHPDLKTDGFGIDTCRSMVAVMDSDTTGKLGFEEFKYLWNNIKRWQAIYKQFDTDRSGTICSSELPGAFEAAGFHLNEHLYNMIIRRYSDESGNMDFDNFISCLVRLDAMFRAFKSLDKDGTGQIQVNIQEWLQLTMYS
Experimental: The Ki value was also determined in some cases. These criteria were used to measure the inhibitory effect of the compounds (I) on calpain I, calpain II and cathepsin B.
Enzymatic Calpain Inhibition Assay
The inhibitory properties of calpain inhibitors are tested in 100 μl of a buffer containing 100 mM imidazole pH 7.5, 5 mM L-Cystein-HCl, 5 mM CaCl2, 250 μM of the calpain fluorogenic substrate Suc-Leu-Tyr-AMC (Sigma) (Sasaki et al., J. Biol. Chem., 1984, 259, 12489-12949) dissolved in 2.5 μl DMSO and 0.5 μg of human μ-calpain (Calbiochem). The inhibitors dissolved in 1 μl DMSO are added to the reaction buffer. The fluorescence of the cleavage product 7-amino-4-methylcoumarin (AMC) is followed in a SPECTRAmax GEMINI XS (Molecular Device) fluorimeter at λex=360 nm and λem=440 nm at 30° C. during 30 min at intervals of 30 sec in 96-well plates (Greiner). The initial reaction velocity at different inhibitor concentrations is plotted against the inhibitor concentration and the IC50 values determined graphically.

[1] = test system: cellular calpains in C2C12 myoblasts; test: Calpain inhibition assay in C2C12 myoblasts; assay type: cell-based; conditions: 2 h incubation, calcium ionophore Br-A-23187, read-out: Calp I IC50 Myoblast
Experimental: Calpain Inhibition Assay in C2C12 Myoblasts
This assay is aimed at monitoring the ability of the substance to inhibit cellular calpains. C2C12 myoblasts are grown in 96-well plates in growth medium (DMEM, 20% foetal calf serum) until they reach confluency. The growth medium is then replaced by fusion medium (DMEM, 5% horse serum). 24 hours later the fusion medium is replaced by fusion medium containing the test substances dissolved in 1 μl DMSO. After 2 hours of incubation at 37° C. the cells are loaded with the calpain fluorogenic substrate Suc-Leu-Tyr-AMC at 400 μM in 50 μl of a reaction buffer containing 135 mM NaCl; 5 mM KCl; 4 mM CaCl2; 1 mM MgCl2; 10 mM Glucose; 10 mM HEPES pH 7.25 for 20 min at room temperature. The calcium influx, necessary to activate the cellular calpains, is evoked by the addition of 50 μl reaction buffer containing 20 μM of the calcium ionophore Br-A-23187 (Molecular Probes). The fluorescence of the cleavage product AMC is measured as described above during 60 min at 37° C. at intervals of 1 min. The IC50 values are determined as described above. Comparison of the IC50 determined in the enzymatic calpain inhibition assay to the IC50 determined in the C2C12 myoblasts calpain inhibiton assay, allows to evaluate the cellular uptake or the membrane permeability of the substance.

[2] = test system: Primary fibroblasts from donors with Friedreich Ataxia (FRDA); test: BSO assay (cell viability under BSO-induced oxidative stress); assay type: cell-based, human; conditions: 24 h preincubation, 1 mM BSO; for EC50: Homo sapiens, Fibroblast
Experimental: Primary fibroblasts were derived from donors with molecular diagnosis for Friedreich Ataxia (FRDA) and control donors with no mitochondrial disease. Cell lines were obtained from Coriell Cell Repositories (Camden, N.J.; catalog numbers GM04078, GM08402 and GM08399 respectively). All cell types were diagnosed on the molecular level for intronic […] triplet repeat length of at least 400-450 repeats using a PCR-based method. Experiments were carried out as described in the literature (M. L. Jauslin et al., Human Mol. Genet., 2002, 11, 3055-3063): Cells were seeded in microtiter plates at a density of 4'000 cells per 100 μl in growth medium consisting of 25% (v/v) M199 EBS and 64% (v/v) MEM EBS without phenol red (Bioconcept, Allschwil, Switzerland) supplemented with 10% (v/v) fetal calf serum (PAA Laboratories, Linz, Austria), 100 U/ml penicillin, 100 μg/ml streptomycin (PAA Laboratories, Linz, Austria), 10 μg/ml insulin (Sigma, Buchs, Switzerland), 10 ng/ml EGF (Sigma, Buchs, Switzerland), 10 ng/ml bFGF (PreproTech, Rocky Hill, N.J.) and 2 mM glutamine (Sigma, Buchs, Switzerland). The cells were incubated in the presence of various test compounds for 24 h before addition of L-buthionine-(S,R)-sulfoximine (BSO) to a final concentration of 1 mM. Cell viability was measured after the first signs of toxicity appeared in the BSO-treated controls (typically after 16 to 48 h). The cells were stained for 60 min at room temperature in PBS with 1.2 μM calcein AM and 4 μM ethidium homodimer (Live/Dead assay, Molecular Probes, Eugene, Oreg.). Fluorescence intensity was measured with a Gemini Spectramax XS spectrofluorimeter (Molecular Devices, Sunnyvale, Calif.) using excitation and emission wavelengths of 485 nm and 525 nm respectively.

Compound | IC50 (human μ-calpain) | IC50 [1] | EC50 [2] | BSO EC50 [2]
CCNC(=O)C(=O)[C@H](Cc1ccc(Cl)cc1Cl)NC(=O)[C@H](CC(C)C)NC(=O)CCCCC1CCS[S+]1[O-] (stereo partly drawn) [Example 36] | 40 nM | 5000 nM | 3000 nM | 
CCNC(=O)C(=O)[C@H](Cc1ccc(F)cc1)NC(=O)[C@@H](NC(=O)CCCCC1CCSS1)C(C)C (stereo partly drawn) [Example 37] | 100 nM | 2500 nM |  | inactive
CCNC(=O)C(=O)[C@H](Cc1ccc(F)cc1)NC(=O)[C@@H](NC(=O)CCCCC1CCS[S+]1[O-])C(C)C (stereo partly drawn) [Example 38] | 180 nM | 7000 nM | 20000 nM | 
CCNC(=O)C(=O)[C@H](Cc1ccc(F)cc1)NC(=O)[C@H](CC(C)C)NC(=O)CCCCC1CCS[S+]1[O-] (stereo partly drawn) [Example 40] | 35 nM | 15000 nM | 3000 nM | 
CCNC(=O)C(=O)[C@H](Cc1ccc(Br)cc1)NC(=O)[C@@H](NC(=O)CCCCC1CCS[S+]1[O-])C(C)C (stereo partly drawn) [Example 54] | 150 nM | 8000 nM | 5000 nM | 
CCNC(=O)C(=O)[C@H](Cc1ccc(Br)cc1)NC(=O)[C@@H](NC(=O)CCCCC1CCSS1)C(C)CC (stereo partly drawn) [Example 74] | 180 nM | 9000 nM | 3000 nM | 
CCNC(=O)C(=O)[C@H](Cc1ccc(Br)cc1)NC(=O)[C@@H](NC(=O)CCCCC1CCS[S+]1[O-])C(C)CC (stereo partly drawn) [Example 75] | 750 nM | 9000 nM | 6000 nM | 
CCNC(=O)C(=O)[C@H](Cc1ccc(O)cc1)NC(=O)[C@@H](NC(=O)CCCCC1CCSS1)C(C)C (stereo partly drawn) [Example 80] | 150 nM | 2500 nM | 6000 nM | 
CCNC(=O)C(=O)[C@H](Cc1ccc(O)cc1)NC(=O)[C@H](CC(C)C)NC(=O)CCCCC1CCSS1 (stereo partly drawn) [Example 82] | 40 nM | 10000 nM | 15000 nM | 

Further lines, with some results ahead:

IC50 (human μ-calpain) | IC50 [1] | Compound | EC50 [2] | BSO EC50 [2]
400 nM | 4000 nM | CCNC(=O)C(=O)[C@H](Cc1ccc(OC)cc1)NC(=O)[C@@H](NC(=O)CCCCC1CCSS1)C(C)C (stereo partly drawn) [Example 84] | 2000 nM | 
80 nM | 900 nM | CCNC(=O)C(=O)[C@H](Cc1ccc(OC)cc1)NC(=O)[C@@H](NC(=O)CCCCC1CCS[S+]1[O-])C(C)C (stereo partly drawn) [Example 85] | 5000 nM | 
35 nM | 2500 nM | CCNC(=O)C(=O)[C@H](Cc1ccc(OC)cc1)NC(=O)[C@H](CC(C)C)NC(=O)CCCCC1CCS[S+]1[O-] (stereo partly drawn) [Example 95] | 10000 nM | 
80 nM | 1000 nM | CCNC(=O)C(=O)[C@H](Cc1ccc(C)cc1)NC(=O)[C@@H](NC(=O)CCCCC1CCS[S+]1[O-])C(C)C (stereo partly drawn) [Example 105] | 200 nM | 
25 nM | 1200 nM | CCNC(=O)C(=O)[C@H](Cc1ccc(C)cc1)NC(=O)[C@H](CC(C)C)NC(=O)CCCCC1CCS[S+]1[O-] (stereo partly drawn) [Example 111] | 3000 nM | 
300 nM | 1000 nM | CCNC(=O)C(=O)[C@H](Cc1ccc(C)cc1)NC(=O)[C@@H](NC(=O)CCCCC1CCSS1)C(C)CC (stereo partly drawn) [Example 116] | 2000 nM | 
200 nM | 1100 nM | CCNC(=O)C(=O)[C@H](Cc1ccc(C(F)(F)F)cc1)NC(=O)[C@@H](NC(=O)CCCCC1CCSS1)C(C)C (stereo partly drawn) [Example 122] | 5000 nM | 
100 nM | 15000 nM | CCNC(=O)C(=O)[C@H](Cc1cccc(C(F)(F)F)c1)NC(=O)[C@H](CC(C)C)NC(=O)CCCCC1CCSS1 (stereo partly drawn) [Example 128] | 20000 nM | 
50 nM | 4000 nM | CCNC(=O)C(=O)[C@H](Cc1cccc(C(F)(F)F)c1)NC(=O)[C@H](CC(C)C)NC(=O)CCCCC1CCS[S+]1[O-] (stereo partly drawn) [Example 129] | 2000 nM | 
120 nM | 5000 nM | CCNC(=O)C(=O)[C@H](Cc1ccc(C#N)cc1)NC(=O)[C@@H](NC(=O)CCCCC1CCSS1)C(C)C (stereo partly drawn) [Example 130] | 20000 nM | 
180 nM | 7500 nM | CCNC(=O)C(=O)[C@H](Cc1ccc(C#N)cc1)NC(=O)[C@@H](NC(=O)CCCCC1CCS[S+]1[O-])C(C)C (stereo partly drawn) [Example 131] | 30000 nM | 
